Measured values published in US10064858B2, “Methods and compositions for treating bacterial infections with iron chelators” (THE UNITED STATES OF AMERICA, AS REPRESENTED BY THE …, priority 2011, dated 2018).
Read-outs that look alike come from different tables or passages of the source.

What was measured:
Format in all cases: cell-based
[1] = tested on: clinical isolates of A. baumannii; assay: MIC for clinical isolates in CAMHB media (Table 3); conditions: Acinetobacter baumannii
Procedure: (§1) Individual MICs were determined following the microdilution method recommended by CLSI in cationic-adjusted Mueller-Hinton Broth (CAMHB), or M9 media. […] Tests were performed in triplicate. MIC of iron chelators were determined for noscomial ESKAPE pathogens.

[2] = tested on: multi-drug resistant bacterial species; assay: Time kill method, synergy with rifampin (summary)
Procedure: (§2) Reductions in colony forming units (CFU)/mL were determined over time (time-kill assay) after exposure to VK28 and deferiprone (DFP), the two iron chelators that performed best in MIC assays when compared to controls. To better represent the iron content found in the human body, MIC and time-kill assays were also determined in minimal media and tissue culture media. Time-Kill assays were performed as previously described in G. P. Neupane et al., “In vitro time-kill activities of ciprofloxacin alone and in combination with the iron chelator deferasirox against Vibrio vulnificus,” European Journal of Clinical Microbiology and Infectious Diseases, 407-410 (2010); and R. L. White, et al., “Comparison of Three Different In Vitro Methods of Detecting synergy: Time-Kill, Checkerboard, and E test,” Journal of Antimicrobial Agents and Chemotherapy, 1914-1918 (1996). Initial inocula, for example 1×10^6 CFU/mL or 1×10^7 CFU/mL were challenged with iron chelator with and/or without an antibiotic. Cells were allowed to grow in CAMHB at 37° C. for 24 hours. Time-kill results were analyzed by determining the change in log 10 numbers of CFU/ml at 0, 6, and 24 h, compared to counts at 0 h. Antimicrobials were considered bactericidal at the lowest concentration that reduced the size of the original inoculum by >3 log 10 CFU/ml (99.9%) over each of the time periods and were considered bacteriostatic if the inoculum's size was reduced by 0 to <3 log 10 CFU/ml.

E. coli EC35218 = assay: Time-kill assay in CAMHB; conditions: CAMHB
Procedure: as §2
In this example, time-kill assays were performed as described in Example 9 against different multi-drug resistant bacteria, namely E. coli and MRSA.
In this example, time-kill assays were performed as described in Example 9 using ApoL1 as the iron chelator against two different E. coli strains. […] Time-kill results were analyzed by determining the change in log 10 numbers of CFU/mL at 6 and 24 hours.
In this example, time-kill assays were performed as described in Example 9 using Apo6619 as the iron chelator in combination with Rifampin against E. coli 35718. […] Time-kill results were analyzed by determining the change in log 10 numbers of CFU/mL at 0, 5 and 24 hours.

K. pneumonia = assay: MIC, CLSI microdilution (Tables 1 and 6); conditions: Klebsiella pneumoniae, Table 1, read-out: MIC of Iron Chelators
Procedure: (§3) The minimal inhibitory concentration (MIC) of non-toxic iron chelators was determined against standard strains of MDR bacteria and clinical isolates according to the guidelines of the Clinical and Laboratory Standards Institute (CLSI).
as §1
(§4) MIC were determined in CAMHB media as described above in Example 8.

Acinetobacter baumannii = assay: MIC, CLSI microdilution (Tables 1 and 6)
Procedure: as §3, §1, §4

P. aeruginosa = assay: MIC, CLSI microdilution (Tables 1 and 6); conditions: Pseudomonas aeruginosa, Table 1, read-out: MIC of Iron Chelators
Procedure: as §3, §1, §4

E. coli = assay: MIC, CLSI microdilution (Tables 1 and 6); conditions: Escherichia coli, Table 1, read-out: MIC of Iron Chelators
Procedure: as §3, §1, §4

S. aureus = assay: MIC, CLSI microdilution (Tables 1 and 6); conditions: Staphylococcus aureus, Table 1, read-out: MIC of Iron Chelators
Procedure: as §3, §1, §4

[3] = tested on: A. baumannii AB 19606, AB 17978; assay: Checkerboard assay, chelator with antibiotic (FIC); conditions: for checkerboard interaction: AB19606
Source text: Drug interactions were initially evaluated with the “checkerboard” microdilution design, which provided a matrix of all drug combinations assayed in terms of fractions of the previously determined MIC. The checkerboard microdilution design is described in R. J. Tallarida, “Drug Synergism: Its Detection and Applications,” Journal of Pharmacology and Experimental Therapeutics, 865-872 (2001); and in R. L. White, et al., (1996), supra. FIGS. 39A and 39B show the wellplates having different concentrations of iron chelator and antibiotic, as labeled along the x-axis and y-axis. […] The checkerboard assay was used to asses other combinations of iron chelators and antibiotics. The fractional inhibitory concentration index (FIC), which was calculated as follows: FIC=(MIC A in combination/MIC A)+(MIC B in combination/MIC B). […] Blank spaces indicate concentrations not tested. […] Against the species PA PAO1 and PA 27853, all the antibiotics except for Ami.

[4] = 1.5 MIC ApoL1 in combination with ¾MIC rifampin

SMILES: Cc1c(O)c(=O)ccn1C [ApoL1, 3-hydroxy-1,2-dimethyl-4(1H)-pyridone]
- MIC ([1]; AB967, read-out: MIC of Iron Chelators): 250 µg/mL
- MIC ([1]; AB2828, read-out: MIC of Iron Chelators): 500 µg/mL
- MIC ([1]; AB3340, read-out: MIC of Iron Chelators): 250 µg/mL
- MIC ([1]; AB3560, read-out: MIC of Iron Chelators): 500 µg/mL
- MIC ([1]; AB3638, read-out: MIC of Iron Chelators): 250 µg/mL
- MIC ([1]; AB3785, read-out: MIC of Iron Chelators): 250 µg/mL
- MIC ([1]; AB3806, read-out: MIC of Iron Chelators): 500 µg/mL
- MIC ([1]; AB3917, read-out: MIC of Iron Chelators): 250 µg/mL
- MIC ([1]; AB3927, read-out: MIC of Iron Chelators): 250 µg/mL
- MIC ([1]; AB4025, read-out: MIC of Iron Chelators): 250 µg/mL
- MIC ([1]; AB4026, read-out: MIC of Iron Chelators): 250 µg/mL
- MIC ([1]; AB4027, read-out: MIC of Iron Chelators): 250 µg/mL
- MIC ([1]; AB4052, read-out: MIC of Iron Chelators): 250 µg/mL
- MIC ([1]; AB4269, read-out: MIC of Iron Chelators): 250 µg/mL
- MIC ([1]; AB4448, read-out: MIC of Iron Chelators): 250 µg/mL
- MIC ([1]; AB4456, read-out: MIC of Iron Chelators): 250 µg/mL
- MIC ([1]; AB4490, read-out: MIC of Iron Chelators): 250 µg/mL
- MIC ([1]; AB4498, read-out: MIC of Iron Chelators): 250 µg/mL
- MIC ([1]; AB4795, read-out: MIC of Iron Chelators): 250 µg/mL
- MIC ([1]; AB4857, read-out: MIC of Iron Chelators): 250 µg/mL
- MIC ([1]; AB4878, read-out: MIC of Iron Chelators): 250 µg/mL
- MIC ([1]; AB4932, read-out: MIC of Iron Chelators): 500 µg/mL
- MIC ([1]; AB4957, read-out: MIC of Iron Chelators): 125 µg/mL
- MIC ([1]; AB4991, read-out: MIC of Iron Chelators): 250 µg/mL
- MIC ([1]; AB5001, read-out: MIC of Iron Chelators): 125 µg/mL
- MIC ([1]; AB5075, read-out: MIC of Iron Chelators): 250 µg/mL
- MIC ([1]; AB5197, read-out: MIC of Iron Chelators): 250 µg/mL
- MIC ([1]; AB5256, read-out: MIC of Iron Chelators): 250 µg/mL
- MIC ([1]; AB5674, read-out: MIC of Iron Chelators): 250 µg/mL
- MIC ([1]; AB5711, read-out: MIC of Iron Chelators): 250 µg/mL
- synergy with rifampin, time kill method [2]: strong synergy
- reduction in CFU/mL (E. coli EC35218; [4]): greater than 3 log 10
- time-kill effect (E. coli EC35218; [4]): bactericidal (considered bactericidal at the lowest concentration that reduced the size of the original inoculum by >3 log 10 CFU/ml (99.9%))
- time-kill effect (E. coli EC35218; 1.5 MIC Iron Chelator alone): bacteriostatic (considered bacteriostatic if the inoculum's size was reduced by 0 to <3 log 10 CFU/ml)
- MIC (K. pneumonia; ATCC700603, ATCC 700603): 500 µg/mL
- MIC (K. pneumonia; BAA2146, BAA-2146): 250 µg/mL
- MIC (Acinetobacter baumannii; ATCC17978, ATCC 17978, Table 1, read-out: MIC of Iron Chelators): 125 µg/mL
- MIC (Acinetobacter baumannii; ATCC19606, ATCC 19606, Table 1, read-out: MIC of Iron Chelators): 125 µg/mL
- MIC (P. aeruginosa; ATCC27853, ATCC 27853): > 500 µg/mL
- MIC (P. aeruginosa; PAO1): 250 µg/mL
- MIC (E. coli; ATCC35218, ATCC 35218): 500 µg/mL
- MIC (E. coli; ATCC43888, ATCC 43888 (0157:H7)): 500 µg/mL
- MIC (S. aureus; ATCC25923, ATCC 25923): > 500 µg/mL
- MIC (S. aureus; ATCC 43300 (MRSA)): > 500 µg/mL
- FIC ([3]; AB 17978, in combination with Amikacin): 1.25
- FIC ([3]; AB 17978, in combination with Cefotaxine): 1.25
- FIC ([3]; AB 17978, in combination with Colisitin (Colistin)): 1.25
- FIC ([3]; AB 17978, in combination with Doxycycline): 1.25
- FIC ([3]; AB 17978, in combination with Rifampin): 0.75
- FIC ([3]; AB 19606, in combination with Amikacin): 1.25
- FIC ([3]; AB 19606, in combination with Cefotaxine): 1.25
- FIC ([3]; AB 19606, in combination with Colisitin (Colistin)): 1.25
- FIC ([3]; AB 19606, in combination with Doxycycline): 2.25
- FIC ([3]; AB 19606, in combination with Rifampin): 0.75
- checkerboard interaction ([3]; with doxycycline (FIG. 39B)): indifference
- checkerboard interaction ([3]; with rifampin (FIG. 39A)): moderate synergy
